{"source": "patent US6667387B1", "about": "“HCV core peptides” (priority 1992, dated 2003)", "key": {"[1]": {"experiment": "ELISA with seronegative / negative control sera (specificity)", "format": "binding, human", "conditions": "Table 4B; negative serum", "experimental": "(§1) Where peptides were to be coated directly, stock solutions of the peptides were diluted in sodium carbonate buffer, pH 9.6 and used to coat polystyrene microtiter plates at a peptide concentration of 2 to 5 micrograms per milliliter for 1 hour at 37° C.\n(§2) In cases where biotinylated peptides were to be evaluated, plates were first coated with streptavidin in sodium carbonate buffer, pH 9.6 at a concentration of 3 micrograms per milliliter for 1 hour at 37° C. The plates were then washed to remove excess, unbound protein. A working solution of the biotinylated peptide at 1 microgram per milliliter in sodium carbonate buffer was then added to the wells of the microtiter plate and incubated for 1 hours at 37° C.\n(§3) Once the plates had been coated with antigen, any remaining free binding sites on the plastic were blocked with casein. After washing, a dilution of the appropriate antisera, usually 1:100, was added to the wells of the plates and incubated for 1 hour at 37° C.\n(§4) After washing to remove unbound material, specific antibody binding was detected by incubating the plates with goat anti-human immunoglobulin antibodies conjugated to the enzyme horseradish peroxidase. Following removal of unbound conjugate by washing, a solution containing H2O2 and 3,3′,5,5′-tetramethylbenzidine was added.\n(§5) Reactions were stopped after a suitable interval by addition of sulfuric acid. […] Absorbance measurements were made at a wavelength of 450 nanometers and all data are expressed as an optical density value at this wavelength.\n(§6) Unbiotinylated HCV peptide I was coated directly onto the wells of a polystyrene ELISA plate at a concentration of 3 micrograms per milliliter in sodium carbonate buffer, pH 9.6. Biotinylated HCV peptide I was bound to streptavidin-coated wells using a stock solution containing the peptide at a concentration of 1 microgram per milliliter. The resulting plates were then incubated in parallel with a panel of sera from HCV-seropositive donors. […] Two of the sera (8326 and 8244) recognize the biotinylated version of this peptide far better than the unbiotinylated version. The specificity of the antibody reaction is also reflected by the low optical density values obtained for 5 serum samples from uninfected donors (F88, F89, F76, F136, and F6).\nTo determine how well biotinylated peptides would function in a mixture when bound to streptavidin- or avidin-coated plates, two mixtures were made of the N-terminally biotinylated versions of the HIV-1 peptides TM-HIV-1 (hereabove referred to as 1a.1) and V3-nm (hereabove referred to as 1b.4), the HIV-2 peptide TM-HIV-2 (hereabove referred to as 2a), and the hepatitis C virus peptides II, IX, and XVIII. Mixture A contained each of the six biotinylated peptides at a concentration of 1 microgram per milliliter (6 micrograms per milliliter peptide, total) while in mixture B, each peptide was present at a concentration of 0.1 microgram per milliliter (0.6 microgram per milliliter peptide, total). The individual peptides were coated at a concentration of 1 microgram per milliliter. For purposes of comparison, mixtures A and B were also coated directly onto the wells of a microtiter plate. Samples from HIV-1, HIV-2, and HCV-seropositive donors were tested and compared to sera from seronegative blood donors. A cut-off absorbance value of 0.250 was used to determine whether a reaction was positive or negative. Absorbance values equal or greater than 0.250 were considered positive while absorbance values below this value were considered negative."}, "[2]": {"system": "antibodies in sera from HCV-seropositive donors", "experiment": "ELISA with HCV antibody-positive sera (biotinylated peptides on streptavidin- or avidin-coated plates, unbiotinylated peptides coated directly)", "format": "binding, human", "conditions": "for optical density (450 nm): Table 4B, 20-fold dilution; for PEPTIDE ELISA (O.D.): Table 12, biotinylated 20-mers", "experimental": "as §1, §2, §3, §4, §5\nThe unbiotinylated peptides were adsorbed onto the wells of polystyrene microtiter plates at a concentration of 3 micrograms per milliliter.\nThe biotinylated peptides were bound at a concentration of 1 microgram per milliliter to streptavidin-coated microtiter plates. Sera known to contain antibodies to these peptides were used for the evaluation and were tested at a 20-fold dilution.\nTo investigate further the enhanced antibody recognition of biotinylated HCV peptides bound to streptavidin or avidin as compared to direct adsorption on plastic, the influence of peptide coating concentration was investigated. Three peptides (HCV peptides II, XI, and XVI) were coated in concentrations ranging from 10 nanograms per milliliter to 3 micrograms per milliliter in a volume of 200 microliters per microtiter plate well. For direct coating, the unbiotinylated versions of these peptides were used. The biotinylated versions of these peptides were used to coat wells to which streptavidin had previously been adsorbed. Sera known to contain antibodies to these peptides were used at a dilution of 1 to 100 to evaluate the magnitude of antibody binding.\nas §6\nTo determine how well biotinylated peptides would function in a mixture when bound to streptavidin- or avidin-coated plates, two mixtures were made of the N-terminally biotinylated versions of the HIV-1 peptides TM-HIV-1 (hereabove referred to as 1a.1) and V3-nm (hereabove referred to as 1b.4), the HIV-2 peptide TM-HIV-2 (hereabove referred to as 2a), and the hepatitis C virus peptides II, IX, and XVIII. […]"}}}
{"substance": "Leu-Arg-Lys-Ser-Arg-Arg-Phe-Ala-Gln-Ala-Leu-Pro-Val-Trp-Ala-Arg-Pro-Asp-Tyr-Asn [Unbiotinylated peptide XVI] (LRKSRRFAQALPVWARPDYN; printed: Leu-Arg-Lys-Ser-Arg-Arg-Phe-Ala-Gln-Ala-Leu-Pro-Val-Trp-Ala-Arg-Pro-Asp-Tyr-Asn)", "values": [{"measurement": "optical density (450 nm)", "setting": "[1]", "result": 0.063}, {"measurement": "optical density (450 nm)", "setting": "[2]; serum 1", "result": 1.038}, {"measurement": "optical density (450 nm)", "setting": "[2]; serum 2", "result": 0.616}, {"measurement": "optical density (450 nm)", "setting": "[2]; serum 6", "result": 0.100}, {"measurement": "optical density (450 nm)", "setting": "[2]; serum 8", "result": 0.329}, {"measurement": "optical density (450 nm)", "setting": "[2]; serum 10", "result": 1.033}, {"measurement": "optical density (450 nm)", "setting": "[2]; serum 26", "result": 0.053}, {"measurement": "optical density (450 nm)", "setting": "[2]; serum 83", "result": 0.912}, {"measurement": "optical density (450 nm)", "setting": "[2]; serum 88", "result": 1.187}, {"measurement": "optical density (450 nm)", "setting": "[2]; serum 89", "result": 0.495}, {"measurement": "optical density (450 nm)", "setting": "[2]; serum 91", "result": 0.197}, {"measurement": "optical density (450 nm)", "setting": "[2]; serum 95", "result": 0.109}, {"measurement": "optical density (450 nm)", "setting": "[2]; serum 99", "result": 0.814}, {"measurement": "optical density (450 nm)", "setting": "[2]; serum 100", "result": 0.474}, {"measurement": "optical density (450 nm)", "setting": "[2]; serum 104", "result": 0.205}, {"measurement": "optical density (450 nm)", "setting": "[2]; serum 105", "result": 0.313}, {"measurement": "optical density (450 nm)", "setting": "[2]; serum 110", "result": 0.762}, {"measurement": "optical density (450 nm)", "setting": "[2]; serum 111", "result": 0.193}, {"measurement": "optical density (450 nm)", "setting": "[2]; serum 112", "result": 0.253}, {"measurement": "optical density (450 nm)", "setting": "[2]; serum 113", "result": 0.833}, {"measurement": "optical density (450 nm)", "setting": "[2]; serum 116", "result": 0.058}, {"measurement": "optical density (450 nm)", "setting": "[2]; serum 120", "result": 0.964}, {"measurement": "optical density (450 nm)", "setting": "[2]; serum 266", "result": 0.712}, {"measurement": "optical density (450 nm)", "setting": "[2]; serum 8247", "result": 0.059}, {"measurement": "optical density (450 nm)", "setting": "[2]; serum 11476", "result": 0.068}, {"measurement": "optical density (450 nm)", "setting": "[2]; serum 24758", "result": 0.071}]}
{"substance": "NS5-25: biotinylated 20-mer, HCV NS5 aa 2263-2282, SEQ ID NO:59", "values": [{"measurement": "PEPTIDE ELISA (O.D.)", "setting": "[2]; serum 0843", "result": 0.062}, {"measurement": "PEPTIDE ELISA (O.D.)", "setting": "[2]; serum 8240", "result": 0.054}, {"measurement": "PEPTIDE ELISA (O.D.)", "setting": "[2]; serum 8241", "result": 0.050}, {"measurement": "PEPTIDE ELISA (O.D.)", "setting": "[2]; serum 8242", "result": 0.260}, {"measurement": "PEPTIDE ELISA (O.D.)", "setting": "[2]; serum 8332", "result": 0.047}, {"measurement": "PEPTIDE ELISA (O.D.)", "setting": "[2]; serum 8339", "result": 1.495}, {"measurement": "PEPTIDE ELISA (O.D.)", "setting": "[2]; serum 8350", "result": 0.069}, {"measurement": "PEPTIDE ELISA (O.D.)", "setting": "[2]; serum 8377", "result": 1.092}, {"measurement": "PEPTIDE ELISA (O.D.)", "setting": "[2]; serum 8378", "result": 0.279}, {"measurement": "PEPTIDE ELISA (O.D.)", "setting": "[2]; serum 8388", "result": 0.055}]}
{"substance": "Core-7: biotinylated 20-mer, HCV core aa 37-56, SEQ ID NO:41", "values": [{"measurement": "PEPTIDE ELISA (O.D.)", "setting": "[2]; serum 0843", "result": 1.251}, {"measurement": "PEPTIDE ELISA (O.D.)", "setting": "[2]; serum 8240", "result": 1.529}, {"measurement": "PEPTIDE ELISA (O.D.)", "setting": "[2]; serum 8241", "result": 0.448}, {"measurement": "PEPTIDE ELISA (O.D.)", "setting": "[2]; serum 8242", "result": 0.632}, {"measurement": "PEPTIDE ELISA (O.D.)", "setting": "[2]; serum 8332", "result": 1.387}, {"measurement": "PEPTIDE ELISA (O.D.)", "setting": "[2]; serum 8339", "result": 0.166}, {"measurement": "PEPTIDE ELISA (O.D.)", "setting": "[2]; serum 8350", "result": 0.357}, {"measurement": "PEPTIDE ELISA (O.D.)", "setting": "[2]; serum 8377", "result": 0.221}, {"measurement": "PEPTIDE ELISA (O.D.)", "setting": "[2]; serum 8378", "result": 1.089}, {"measurement": "PEPTIDE ELISA (O.D.)", "setting": "[2]; serum 8388", "result": 0.970}]}
{"substance": "HCV-7: biotinylated 20-mer, HCV NS4 aa 1724-1743, SEQ ID NO:55", "values": [{"measurement": "PEPTIDE ELISA (O.D.)", "setting": "[2]; serum 0843", "result": 2.251}, {"measurement": "PEPTIDE ELISA (O.D.)", "setting": "[2]; serum 8240", "result": 1.963}, {"measurement": "PEPTIDE ELISA (O.D.)", "setting": "[2]; serum 8241", "result": 0.968}, {"measurement": "PEPTIDE ELISA (O.D.)", "setting": "[2]; serum 8242", "result": 1.252}, {"measurement": "PEPTIDE ELISA (O.D.)", "setting": "[2]; serum 8332", "result": 0.945}, {"measurement": "PEPTIDE ELISA (O.D.)", "setting": "[2]; serum 8339", "result": 0.041}, {"measurement": "PEPTIDE ELISA (O.D.)", "setting": "[2]; serum 8350", "result": 0.598}, {"measurement": "PEPTIDE ELISA (O.D.)", "setting": "[2]; serum 8377", "result": 1.829}, {"measurement": "PEPTIDE ELISA (O.D.)", "setting": "[2]; serum 8378", "result": 2.006}, {"measurement": "PEPTIDE ELISA (O.D.)", "setting": "[2]; serum 8388", "result": 2.504}, {"measurement": "antibody binding to the 20-mers", "setting": "[2]; serum 8241", "result": "Moderate binding"}]}
